Source: US9210928B2, “Plant development control composition” (Syngenta Crop Protection, LLC, priority 2008, dated 2015)
“Also recorded” adds a separate entry of the source.

Experiments:
LeNCED1 = biological target: T1, LeNCED1 (Solanum lycopersicum, UniProt O24023); experiment: In vitro NCED enzyme assay (recombinant LeNCED1 cell-free extract, HPLC, 9′-cis-neoxanthin substrate); format: biochemical, tomato
T1 construct: made in house; host or cells: E. coli Rosetta (DE3); crude cell-free extract
Procedure: In vitro NCED enzyme assay—We over-expressed LeNCED1 in E. coli, as an N-terminal His6-fusion protein (supplemental methods). Cell-free extract containing recombinant LeNCED1 was prepared in 100 mM bis-tris buffer (pH 6.7). 15 μl extract was pre-activated by addition of iron(II) sulphate (20 mM, 1 μl) and ascorbic acid (20 mM, 1 μl) on ice for 2 min, prior to use. This aliquot of enzyme was then added to an assay (150 μl total volume) containing 100 mM bis-tris buffer (pH 6.7), 0.05% v/v Triton X-100, 1.0 mg/ml catalase, and 3 μg 9′-cis-neoxanthin. The 9′-cis-neoxanthin substrate was prepared as described in supplemental methods. The enzyme assay was incubated for 15 min in the dark at 20° C. Water (700 μl) was then added, and the products extracted with ethyl acetate (3×1 ml). The organic solvent was removed at reduced pressure, the residue was dissolved in methanol (200 μl), and then 100 μl was injected onto a Phenomenex C18 reverse phase HPLC column, and a gradient of 5-10% methanol in acetonitrile/0.05% triethylamine was applied at 0.5 ml/min over 20 min, detecting at 440 nm. NCED inhibition assays contained 1-100 μM inhibitor; inhibition was calculated from the product formation after 15 min, compared to a control assay with no inhibitor present.
(§1) For the production of cell-free extracts of LeCCD1a and LeNCED1, cultures were grown to an OD of 0.6 at 37° C., then isopropyl β-D-1-thiogalactopyranoside (IPTG) was added to 0.2 mM and the cultures grown overnight at 20° C. The cells (200 ml cultures) were harvested by centrifugation (5000 rpm, 10 min) and the pellet re-suspended in 4 ml PBS, 0.1% Triton-X 100. Lysozyme was added to a final concentration of 25 μg ml^−1 and the solution incubated at room temperature for 15 min before sonication (3×30 s at 18Ω) on ice. The lysate was then centrifuged (13000 rpm, 15 min, 4° C.) and the supernatant used for the assay.
(§2) Specificity of inhibition in vitro for tomato genes LeNCED1 and LeCCD1a—In order to screen the inhibitors against enzymes which cleave carotenoids at the 9,10 position, we used the recombinant tomato LeCCD1a protein (44), because this type of enzyme can be studied using an in vitro colourimetric assay with β-apo-8′-carotenal as substrate (37). To establish the specificity of the inhibitors, they were also tested against the tomato LeNCED1 recombinant protein which cleaves 9-cis carotenoids at the 11,12 position (45). For this enzyme, the cleavage reaction was monitored by C18 reverse phase HPLC, using 9′-cis-neoxanthin as substrate.

recombinant NCED = conditions: read-out: Ki, reversible competitive inhibitor of recombinant NCED; cited from earlier work
LeCCD1a = LeCCD1a (Solanum lycopersicum, UniProt Q6E4P5); experiment: In vitro LeCCD1a enzyme assay (recombinant cell-free extract, colourimetric, apo-8′-carotenal substrate); format: biochemical, tomato (Solanum lycopersicum); conditions: for IC50: E. coli cell extract with recombinant CCD, read-out: LeCCD1a (9,10/9′,10′) IC50; for inhibition at 100 µM: read-out: LeCCD1a (9,10/9′,10′) Inhibition @ 100 μM (%)
Procedure: In vitro LeCCD1a enzyme assay—We over-expressed LeCCD1a in E. coli, as a GST-fusion protein (supplemental methods). The in vitro assay of LeCCD1a was based on reported methods (37), and was carried out in a 200 μl total volume in a 96-well microtitre plate, with the signal detected at 485 nm. To prepare substrate solution for each assay, 5 μl of 4% (w/v in ethanol) apo-8′-carotenal (Sigma) was mixed with 25 μl of 4% (w/v in ethanol) β-octylglucoside (Sigma), the ethanol was then evaporated under nitrogen, and the residue dissolved in 150 μl PBS buffer containing 10 mM sodium ascorbate by incubation at 20° C. for 30 min. 50 μl of cell-free extract containing recombinant LeCCD1a was added, and the reactions monitored over 30 min at 20° C.
as §1, §2

[1] = system: abscisic acid production in planta; conditions: 50-100 μM concentration; cited from earlier work
AtCCD1 = AtCCD1 (Arabidopsis thaliana, UniProt O65572); conditions: 100 μM; cited from earlier work
AtNCED3 = AtNCED3 (Arabidopsis thaliana, UniProt Q9LRR7); conditions: 100 μM; cited from earlier work
SP12 tomato seeds = experiment: Germination assay, SP12 tomato seed over-expressing LeNCED1; format: in vivo, Solanum lycopersicum; conditions: for stimulation of germination of SP12 seeds: compounds D1 to D7 tested, 1% DMSO
From the text: (§3) Seeds used were “wild-type” tomato (Solanum lycopersicum cv. Ailsa craig near-isogenic line containing the Tm2^a tobacco mosaic virus resistance gene). In addition, we used transgenic tomato seed (Solanum lycopersicum cv. Ailsa craig) transformed with a construct designed to over-express the gene LeNCED1, encoding 9-cis-epoxycarotenoid dioxygenase. These transgenic seeds are known as D9 [Thompson, A. J., et al., Ectopic expression of a tomato 9-cis-epoxycarotenoid dioxygenase gene causes over-production of abscisic acid. Plant Journal, 2000. 23(3): p. […]], but were later renamed as SP12 [Thompson, A. J., et al., Regulation and manipulation of ABA biosynthesis in roots. Plant Cell and Environment, 2007. 30: p. […] Plant Journal, 2000. 23(3): p. 363-74.5].
(§4) Each assay consisted of a 10 cm vented Petri dish containing an 8.5 cm diameter circle of Whatman Grade 1 filter paper (Whatman International Ltd, Maidstone, England) soaked in 1 ml of test solution. Seeds were surface sterilized with 30% household bleach for 30 mins, rinsed in distilled water, and then 20 seeds were placed on the filter paper in each Petri dish. The Petri dishes were incubated at high relative humidity (>95%) at 25° C. in the dark. Seed germination, defined as visible emergence of the radicle, was scored daily. Replicate plates were used for each chemical treatment.
Hydroxamic acids were dissolved in dimethylsulphoxide (DMSO), and aqueous test solutions were prepared such that the final concentration of DMSO was 1% v/v. Control solution consisted of 1% v/v DMSO in water. Norflurazon was prepared as a stock solution at 20 mg ml^−1 in ethanol, and then diluted with water to a final concentration of 5 mg l^−1, with ethanol present at 0.025% v/v.
Transgenic SP12 tomato seeds we created by the inventors; these seeds have high levels of ABA and increased dormancy [Thompson, A. J., et al., Ectopic expression of a tomato 9-cis-epoxycarotenoid dioxygenase gene causes over-production of abscisic acid. Plant Journal, 2000. 23(3): p. 363-74 and Thompson, A. J., et al., Regulation and manipulation of ABA biosynthesis in roots. Plant Cell and Environment, 2007. 30: p. 67-78].

[2] = system: wild-type tomato seeds (cv. Ailsa Craig); experiment: Germination assay, wild-type tomato seed; format: in vivo, Solanum lycopersicum; conditions: dose-dependent; FIG. 9
From the text: as §3
as §4, with “treatment. […]” for “treatment.”

whole Arabidopsis plants = experiment: Shoot branching in whole Arabidopsis plants grown in agar; format: in vivo; conditions: for unintended effects on whole Arabidopsis plants: applied to whole plants; for branching phenotype of whole plants (in words): plants grown under sterile conditions in agar
Procedure: Branching phenotypes of Arabidopsis plants grown in agar media for 45 days supplemented with inhibitor D6. Images are shown: (a) Col-0 (WT) without inhibitor; (b) max3-9 mutant without inhibitor; (c) Col-0 with 100 μM D6. The numbers (d) of rosette branches were quantified. Error bars represent standard error of the mean, n=6 to 12.
Stimulation of shoot branching in whole Arabidopsis plants—Inhibitors were also applied to Arabidopsis whole plants grown under sterile conditions in agar. […] Inhibitor treated plants were intermediate (mean of approximately 2 branches) and so partially mimicked max3-9 (FIG. 6d).

[3] = system: excised Arabidopsis nodes; experiment: Axillary bud outgrowth assay in Arabidopsis stem sections; format: in vivo; conditions: 100 μM inhibitor, 1 μM NAA; Col-0
Procedure: Axillary bud outgrowth assay in Arabidopsis stein sections—The assays were performed essentially as described (40) with the following modifications. Small Petri dishes (50 mm diameter, 20 mm depth) were filled with 10 ml of ATS (39) supplemented with 1% agar and 1% sucrose. Inhibitors and α-naphthalene acetic acid (NAA) were added to the agar before pouring to give 100 μM and 1 μM, respectively. Thus, when the central strip was cut out of the agar, both the apical and basal media contained both NAA and inhibitor. Any nodes in which the apical end had curled out of the media or which bud length was less than 2 mm at the end of the experiment were discounted. Measurement of the shoot length was performed every 24 hours. For each assay a logistic curve was fitted using Genstat (10th edition, VSN international) with the fitcurve directive and the lag phase was calculated by extrapolating the linear part of the curve and the initial plateau (see supplementary methods). The x value of where these two lines intersected represented the lag phase.
A logistic curve, y=A+C/(1+e^−B(t−m)), was fitted to the data for each shoot using GenStat (10th edition). The lag phase was then calculated using the equation m−(2/B) which effectively gave the t value (time) of the intercept of the two extrapolated lines from the linear part of the curve and the initial plateau.
Stimulation of shoot branching in Arabidopsis stem sections by application of inhibitor—Auxin inhibits the outgrowth of axillary buds in wild-type Arabidopsis plants. In the AtCCD7 and AtCCD8 null mutants (max3 and max4, respectively) the response to auxin is reduced, presumably due to a block in formation of an apocarotenoid hormone (recently shown (17,18) to be strigolactone or a related compound) that suppresses branching (19), and axillary buds extend earlier, leading to formation of side branches. An in vitro assay was previously developed in which the growth of axillary buds from isolated sections of Arabidopsis stem was used to assess max mutants (40). […]

Sequence of LeCCD1a (Q6E4P5 1-545): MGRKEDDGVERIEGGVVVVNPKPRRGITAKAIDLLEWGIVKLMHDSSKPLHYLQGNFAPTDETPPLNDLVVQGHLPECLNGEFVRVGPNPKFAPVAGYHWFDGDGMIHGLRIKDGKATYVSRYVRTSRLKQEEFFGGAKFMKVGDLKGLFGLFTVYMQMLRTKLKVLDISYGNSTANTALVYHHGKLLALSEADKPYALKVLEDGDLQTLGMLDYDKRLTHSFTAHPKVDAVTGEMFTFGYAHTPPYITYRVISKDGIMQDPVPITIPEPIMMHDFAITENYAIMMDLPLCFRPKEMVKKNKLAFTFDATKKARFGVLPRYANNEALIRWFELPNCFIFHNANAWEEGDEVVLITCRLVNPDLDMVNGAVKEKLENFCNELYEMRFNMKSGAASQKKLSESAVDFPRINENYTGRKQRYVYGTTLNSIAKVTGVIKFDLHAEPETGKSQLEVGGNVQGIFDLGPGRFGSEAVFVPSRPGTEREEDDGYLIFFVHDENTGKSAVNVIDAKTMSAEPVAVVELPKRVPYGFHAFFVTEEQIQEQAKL
T1 sequence (O24023 17-605): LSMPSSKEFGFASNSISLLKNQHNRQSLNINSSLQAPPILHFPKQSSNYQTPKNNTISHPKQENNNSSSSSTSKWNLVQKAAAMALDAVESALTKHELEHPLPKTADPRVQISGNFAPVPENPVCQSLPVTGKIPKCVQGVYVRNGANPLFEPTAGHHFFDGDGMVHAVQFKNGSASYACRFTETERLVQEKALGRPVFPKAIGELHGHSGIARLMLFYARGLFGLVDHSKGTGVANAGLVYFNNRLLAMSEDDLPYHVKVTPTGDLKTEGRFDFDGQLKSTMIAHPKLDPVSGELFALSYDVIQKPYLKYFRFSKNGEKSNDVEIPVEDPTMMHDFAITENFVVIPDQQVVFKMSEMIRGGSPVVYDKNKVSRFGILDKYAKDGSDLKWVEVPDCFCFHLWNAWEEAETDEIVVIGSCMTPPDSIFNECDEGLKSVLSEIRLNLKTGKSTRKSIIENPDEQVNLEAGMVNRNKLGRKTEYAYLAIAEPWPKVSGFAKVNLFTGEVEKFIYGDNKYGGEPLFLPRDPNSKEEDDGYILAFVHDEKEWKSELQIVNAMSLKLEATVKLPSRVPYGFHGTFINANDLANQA
Sequence of AtNCED3 (Q9LRR7 41-599): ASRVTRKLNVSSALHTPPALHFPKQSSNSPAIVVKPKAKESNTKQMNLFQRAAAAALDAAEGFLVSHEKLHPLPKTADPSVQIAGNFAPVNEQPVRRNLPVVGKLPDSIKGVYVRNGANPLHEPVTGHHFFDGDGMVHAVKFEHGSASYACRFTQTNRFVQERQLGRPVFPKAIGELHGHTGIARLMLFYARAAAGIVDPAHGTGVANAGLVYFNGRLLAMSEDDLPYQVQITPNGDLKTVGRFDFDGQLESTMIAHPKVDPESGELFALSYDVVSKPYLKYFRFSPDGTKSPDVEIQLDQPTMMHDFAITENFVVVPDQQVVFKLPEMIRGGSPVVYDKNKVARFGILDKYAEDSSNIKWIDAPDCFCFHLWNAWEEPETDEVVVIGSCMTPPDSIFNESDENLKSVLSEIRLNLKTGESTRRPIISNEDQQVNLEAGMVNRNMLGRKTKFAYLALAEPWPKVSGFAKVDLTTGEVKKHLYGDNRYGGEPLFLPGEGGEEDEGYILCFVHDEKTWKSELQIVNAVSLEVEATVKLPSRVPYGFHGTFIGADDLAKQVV
Sequence of AtCCD1 (O65572 whole entry): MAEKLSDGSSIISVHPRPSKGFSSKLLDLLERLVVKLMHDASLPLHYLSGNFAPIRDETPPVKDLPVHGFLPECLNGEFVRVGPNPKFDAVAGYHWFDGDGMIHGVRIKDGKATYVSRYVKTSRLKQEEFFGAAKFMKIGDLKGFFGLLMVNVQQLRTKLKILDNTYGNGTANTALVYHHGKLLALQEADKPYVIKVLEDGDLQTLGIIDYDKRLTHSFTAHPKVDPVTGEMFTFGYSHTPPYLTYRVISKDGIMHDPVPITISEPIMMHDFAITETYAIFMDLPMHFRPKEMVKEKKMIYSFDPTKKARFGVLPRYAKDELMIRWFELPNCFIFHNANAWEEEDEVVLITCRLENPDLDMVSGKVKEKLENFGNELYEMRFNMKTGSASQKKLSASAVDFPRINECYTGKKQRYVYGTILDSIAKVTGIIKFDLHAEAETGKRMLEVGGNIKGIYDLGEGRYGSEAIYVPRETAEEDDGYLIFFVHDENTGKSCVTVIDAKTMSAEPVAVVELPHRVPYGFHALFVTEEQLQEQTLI

Which “LeNCED1 (11,12) Inhibition @ 100 μM (%)” value (LeNCED1; 100 μM inhibitor, E. coli cell extract with recombinant CCD) does the source give for `COC(=O)CN(C/C=C/c1ccc(OC)c(OC)c1)Cc1ccc(F)cc1` [Abamine, reference compound] here?
The value was 20%.

And the Ki (recombinant NCED)?
Its Ki is 39 µM.

What about the IC50 (LeCCD1a) of the same molecule?
Its IC50 is 210 µM.

What about the “abscisic acid production in planta” value [1] of the same molecule?
The value was “inhibited abscisic acid production in planta”.

Which “inhibition of AtCCD1” value (AtCCD1) does the source give for abamineSG here?
The value was no more than 20%.

And the Ki (recombinant NCED)?
Its Ki is 18.5 µM.

And the “inhibition of AtNCED3” value (AtNCED3)?
Its value is 78%.

With `O=C(Cc1ccc2c(c1)OCO2)N(O)Cc1ccc(F)cc1` [Compound D7, N-(4-fluorobenzyl)-3,4-methylenoxyphenylacetyl hydroxamic acid] as the molecule, how does the “stimulation of germination of SP12 seeds” value (SP12 tomato seeds) read?
Its value is “most active compounds in stimulating germination”.

What about the “inhibition of LeNCED1 in vitro (in words)” value (LeNCED1) of the same molecule?
The value was “greatest inhibition of NCED in vitro”.

And the inhibition at 100 µM (LeCCD1a)?
Its inhibition at 100 µM is greater than 95%.

For `COc1ccc(CC(=O)N(O)Cc2ccc(F)cc2)cc1` [Compound D4, N-(4-fluorobenzyl)-4-methoxyphenylacetyl hydroxamic acid], which “germination of wild-type tomato seeds” value [2] is on record?
The value was “germination of these seeds was also promoted”.

What about the “plant development following application to seeds” value (SP12 tomato seeds; 2 mM) of the same molecule?
Its value is “Some delay in development”.

What about the “stimulation of germination of SP12 seeds” value (SP12 tomato seeds) of the same molecule?
The value was “most active compounds in stimulating germination; also recorded: promoted germination of SP12 seeds”.

And the “plant development following application to wild-type or SP12 seeds” value (SP12 tomato seeds; concentrations <1 mM)?
Its value is “Normal plant development”.

What about the “inhibition of LeNCED1 in vitro (in words)” value (LeNCED1) of the same molecule?
The value was “greatest inhibition of NCED in vitro”.

And the “unintended effects on whole Arabidopsis plants” value (whole Arabidopsis plants)?
The value was “without negative unintended effects on whole plants”.

What about the “branching phenotype of whole plants (in words)” value (whole Arabidopsis plants) of the same molecule?
Its value is “bushy appearance”.

What about the inhibition at 100 µM (LeCCD1a) of the same molecule?
The inhibition at 100 µM was greater than 95%.

Which “unintended effects on whole Arabidopsis plants” value (whole Arabidopsis plants) does the source give for `O=C(Cc1ccc(O)cc1)N(O)Cc1ccccc1` [Compound D1, N-benzyl-4-hydroxyphenylacetyl hydroxamic acid] here?
The value was “grew normally”.

And the “branching phenotype of whole plants (in words)” value (whole Arabidopsis plants)?
The value was “without an increase in branching”.

And the “advancement of the timing of bud outgrowth in wild-type” value [3]?
Its value is “one”.

And the “inhibition of LeCCD1 in vitro (in words)” value (LeCCD1a)?
Its value is “good inhibitors of the 9,10 enzymes in vitro”.

And the IC50 (LeCCD1a)?
Its IC50 is 0.8 to 0.9 µM.

What about the inhibition at 100 µM (LeCCD1a) of the same molecule?
Its inhibition at 100 µM is greater than 95%.
